ChEMBL document CHEMBL1155614, “CR377, a new pentaketide antifungal agent isolated from an endophytic fungus” (2000)
The source made the active and inactive calls. No cut-off for these calls is given here.

What was measured:
[1] = test system: Saccharomyces cerevisiae; experiment: Antimicrobial activity against Saccharomyces cerevisiae at 30 ug by agar diffusion method; format: functional, organism-based
[2] = test system: Candida albicans; experiment: Antimicrobial activity against Candida albicans wisconsin at 30 ug by agar diffusion method; format: functional
[3] = test system: Candida albicans; experiment: Antimicrobial activity against Candida albicans 109 at 30 ug by agar diffusion method; format: functional

Compound	Activity [1]	zone of inhibition at 30 µg/disc ([2]; read-out: IZ) [mm]	zone of inhibition at 30 µg/disc ([3]; read-out: IZ) [mm]	inhibition zone (IZ) [1] [mm]	inhibition zone (IZ) [2] [mm]	inhibition zone (IZ) [3] [mm]
C=C1C(O)=C(C(=O)C(C)CC)C(=O)OC1C (stereo unspecified)	inactive	20	24			
NYSTATIN				21	19	22
